These are literature values, as cited in US20120190646A1, “Compositions Comprising Thalidomide and Artemisinin for the Treatment of Cancer” (priority 2009, published 2012).

Some results are limits rather than exact numbers.

The conditions of this data set: multiple myeloma patients; thalidomide administered without prophylaxis; 'as high as'.

As to `O=C1CCC(N2C(=O)c3ccccc3C2=O)C(=O)N1` (racemic) [thalidomide, 2-(2,6-dioxo-3-piperidinyl)-1H-isoindole-1,3(2H)-dione], the VTE rates was no more than 26%.
